In patent US20230404968A1, “Gamma Butyrolactone Derivatives for Inducing Differentiation in Neoplastic Cells” (priority 2022, published 2023):

Assays:
KG1a cells [1] = assay: Induction of differentiation: gene expression (qRT-PCR) and CD surface markers (flow cytometry), KG1a; assay type: cell-based; settings: KG1a cell line; confirmed by expression of FLT3, PU1, CEBPA genes and CD3, CD20, CD14, CD33, CD16, CD56 surface markers
Protocol: (§1) Cell culture methods and treatments.
(§2) Flow cytometry. […] In addition, treated cells were incubated with antibody-dye conjugate against CD3, CD20, CD16, CD56, CD14, and CD33 for surface antigen analysis. Thereafter the samples were analyzed by flow cytometer (Attune NxT, Life Technologies-Thermo Fisher Scientific, USA). Treatment with 5 μL H2O2 and 1 μM ATRA were used as the positive controls for apoptosis and necrosis and surface antigen analyses, respectively. Data were analyzed with FlowJo software.
(§3) RNA isolation and qRT-PCR. […] The concentration of extracted RNA was measured via spectrophotometer (EPOCH, BioTek, USA) at 260 nm. The quality of isolated RNA was further evaluated via agarose gel electrophoresis indicating two distinctive bands. Isolated RNA was then converted to cDNA via a commercial kit according to the manufacturer's instructions. The primers were designed with AlleleID software and Primer3 algorithm and then double-checked via the BLAST algorithm. cDNA samples were then prepared for analysis using a commercial kit and analyzed with qRT-PCR machine (Applied Biosystems-Thermo Fisher Scientific, USA).

HL60 cells [2] = assay: Apoptosis/necrosis by flow cytometry, Annexin-V-FITC/PI staining, HL60; assay type: cell-based; settings: for apoptosis (early and late) and necrosis: HL60 cells
Protocol: as §1, §2

KG1a cells [3] = assay: Cell viability (MTS) assay, KG1a; settings: for cellular viability (MTS): KG1a cancer cells, at the given concentrations, 24, 48, and 72 hours; for toxicity: KG1a cell line, at a concentration of induction of cellular differentiation (FIGS. 9C, 10C)
Protocol: (§4) Cell culture methods and treatments. HL60 and KG1a cell lines were cultivated in RPMI 1640 (Sigma-USA) culture medium supplemented with 1% penicillin/streptomycin (Gibco-USA), 10% and 20% fetal bovine serum (Gibco-USA) for HL60 and KG1a cell lines, respectively, and 0.5% Glutamax (Gibco-USA) for HL60 cell line. The cells were incubated at 37° C., 5% CO2, and 90% humidity. The stock solution (Mol/L) of HSL-C8, HSL-C12, and A-factor were prepared in 0.1% (v/v) and 0.2% (v/v) and 0.2% (v/v) DMSO, respectively, as a vehicle and stored at −80° C. Different dilutions of HSL-C8, HSL-C12, A-factor, and GBL were prepared from the stock solution, and […] (<4% of the total volume) of each were added to the wells containing 100 μL of cell suspension (10000 and 20000 HL60 and KG1a cells per well). 0.1% and 0.2% DMSO were used as the negative control for HSL-C8, HSL-C12, and A-factor for each test. Culture medium were used as the negative control for GBL.
(§5) Cell viability assay. The cell viability was evaluated via (MTS) assay. HL60, KG1a, and PBMC cells were treated with HSL-C8, HSL-C12, A-factor, and GBL in 96-well plates for 24, 48, and 72 hours. Thereafter, […], of MTS/PMS solution were added to each well and the cells were incubated for 90 minutes. The optical density (OD) of samples was measured via spectrophotometer (EPOCH, BioTek, USA) at 490 nm and the viability of cells was calculated via the following formula:
(§6) Cell viability (%)=[ODsample/ODcontrol]×100

[4] = tested on: peripheral blood mononuclear cells (PBMC); assay: Cell viability (MTS) assay, PBMC; assay type: cell-based; settings: normal cells (PBMC), at the given concentrations, 24, 48, and 72 hours
Protocol: Cell viability assay. The cell viability was evaluated via (MTS) assay.
as §6

HL60 cells [5] = assay: Cell viability (MTS) assay, HL60; settings: for cellular viability (MTS): HL60 cancer cells, at the given concentrations, 24, 48, and 72 hours; for toxicity: HL60 cell line, at a concentration of induction of cellular differentiation (FIGS. 9B, 10B)
Protocol: as §4, §5, §6

KG1a cells [6] = assay: Apoptosis/necrosis by flow cytometry, Annexin-V-FITC/PI staining, KG1a; assay type: cell-based
Protocol: as §1, §2

HL60 cells [7] = assay: Induction of differentiation: gene expression (qRT-PCR) and CD surface markers (flow cytometry), HL60; assay type: cell-based; settings: HL60 cell line; confirmed by expression of FLT3, PU1, CEBPA genes and CD3, CD20, CD14, CD33, CD16, CD56 surface markers
Protocol: as §1, §2, §3

KG1a cells [8] = assay: Wright-Giemsa staining and light microscopy (morphology), KG1a; assay type: cell-based
Protocol: as §1
(§7) Wright-Giemsa staining. HL60 and KG1a cells treated HSL-C8 and HSL-C12 were concentrated and then fixed on the slides with absolute ethanol prior to Wright-Giemsa staining. After staining for four minutes the 1 mL of tap water was added to the slides. After four minutes, they were washed with tap water, air-dried, and evaluated with a light microscopy.

HL60 cells [9] = assay: Wright-Giemsa staining and light microscopy (morphology), HL60; assay type: cell-based
Protocol: as §1, §7

SMILES	terminal cellular differentiation (KG1a cells [1])	cellular viability (MTS) (KG1a cells [3])	toxicity (KG1a cells [3])	cellular viability (MTS) [4]	cellular viability (MTS) (HL60 cells [5])	toxicity (HL60 cells [5])	terminal cellular differentiation (HL60 cells [7])	further results
O=C1CCCO1 [GBL, Gamma butyrolactone]	induced terminal cellular differentiation	do not decrease the cellular viability of treated cancer cells and normal cells (PBMC) significantly	minimal toxicity	do not decrease the cellular viability of treated cancer cells and normal cells (PBMC) significantly	do not decrease the cellular viability of treated cancer cells and normal cells (PBMC) significantly	minimal toxicity	induced terminal cellular differentiation	apoptosis (early and late) and necrosis (HL60 cells [2]; 300 μM of GBL, 48 hours (FIG. 11)): minimal to no apoptosis (early and late) and necrosis; apoptosis (early and late) and necrosis (KG1a cells [6]; KG1a cells, 300 μM of GBL, 48 hours (FIG. 11)): minimal to no apoptosis (early and late) and necrosis
CCCCCC(=O)CC(=O)N[C@H]1CCOC1=O [HSL-C8]	induced terminal cellular differentiation	do not decrease the cellular viability of treated cancer cells and normal cells (PBMC) significantly		do not decrease the cellular viability of treated cancer cells and normal cells (PBMC) significantly	do not decrease the cellular viability of treated cancer cells and normal cells (PBMC) significantly		induced terminal cellular differentiation	change of cell morphology (KG1a cells [8]; 100 μM and 200 μM of HSL-C8, 48 and 72 hours (FIG. 7B)): neutrophil and macrophage-like cells, with lobulated nuclei and expanded cytoplasm; concentrations that cause minimal to no apoptosis (HL60 cells [2]; human): ≤ 100 µM; change of cell morphology (HL60 cells [9]; 50 μM and 100 μM of HSL-C8, 48 and 72 hours (FIG. 7A)): neutrophil and macrophage-like cells, with lobulated nuclei and expanded cytoplasm; concentrations that cause minimal to no apoptosis (KG1a cells [6]; human): ≤ 100 µM
CC(C)CCCCC(=O)C1C(=O)OCC1CO (stereo not drawn) [A-factor, 2-isocapryloyl-3R-hydroxymethyl-gamma-butyrolactone]	induced terminal cellular differentiation	do not decrease the cellular viability of treated cancer cells and normal cells (PBMC) significantly	minimal toxicity	do not decrease the cellular viability of treated cancer cells and normal cells (PBMC) significantly	do not decrease the cellular viability of treated cancer cells and normal cells (PBMC) significantly	minimal toxicity	induced terminal cellular differentiation	
CCCCCCCCCC(=O)CC(=O)N[C@H]1CCOC1=O [HSL-C12]	induced terminal cellular differentiation	do not decrease the cellular viability of treated cancer cells and normal cells (PBMC) significantly		do not decrease the cellular viability of treated cancer cells and normal cells (PBMC) significantly	do not decrease the cellular viability of treated cancer cells and normal cells (PBMC) significantly		induced terminal cellular differentiation	change of cell morphology (KG1a cells [8]; 100 μM and 150 μM of HSL-C12, 24 and 48 hours (FIG. 8B)): neutrophil and macrophage-like cells, with lobulated nuclei and expanded cytoplasm; apoptosis (early and late) and necrosis (HL60 cells [2]; 50 and 100 μM of HSL-C12, 24 hours (FIG. 4A)): minimal to no apoptosis (early and late) and necrosis; apoptosis (early and late) and necrosis (HL60 cells [2]; 50 and 100 μM of HSL-C12, 48 hours (FIG. 4B)): minimal to no apoptosis (early and late) and necrosis; change of cell morphology (HL60 cells [9]; 100 μM and 150 μM of HSL-C12, 24 and 48 hours (FIG. 8A)): neutrophil and macrophage-like cells, with lobulated nuclei and expanded cytoplasm; apoptosis (early and late) and necrosis (KG1a cells [6]; KG1a cells, 100 μM of HSL-C12, 24 hours (FIG. 4C)): minimal to no apoptosis (early and late) and necrosis; apoptosis (early and late) and necrosis (KG1a cells [6]; KG1a cells, 100 μM of HSL-C12, 48 hours (FIG. 4D)): minimal to no apoptosis (early and late) and necrosis; apoptosis and necrosis (KG1a cells [6]; KG1a cells, 150 μM of HSL-C12, 24 hours (FIG. 4C)): minimal apoptosis and necrosis; apoptosis (early and late) and necrosis (KG1a cells [6]; KG1a cells, 150 μM of HSL-C12, 48 hours (FIG. 4D)): moderate apoptosis (early and late) and necrosis
